This is an account of results in US6048873A, “Tetrahdroquinolin-2-one 6 or 7-yl, tetrahdroquinilin-2-thione 6 or 7-yl pentadienoic acid and related derivatives having retinoid-like biological activity” (Allergan Sales, Inc., priority 1998, dated 2000).

The target of test [1] is T1, RXRα (Homo sapiens, UniProt P19793).
T1 construct: expressed in transfected cells
T1 sequence (P19793 1-462): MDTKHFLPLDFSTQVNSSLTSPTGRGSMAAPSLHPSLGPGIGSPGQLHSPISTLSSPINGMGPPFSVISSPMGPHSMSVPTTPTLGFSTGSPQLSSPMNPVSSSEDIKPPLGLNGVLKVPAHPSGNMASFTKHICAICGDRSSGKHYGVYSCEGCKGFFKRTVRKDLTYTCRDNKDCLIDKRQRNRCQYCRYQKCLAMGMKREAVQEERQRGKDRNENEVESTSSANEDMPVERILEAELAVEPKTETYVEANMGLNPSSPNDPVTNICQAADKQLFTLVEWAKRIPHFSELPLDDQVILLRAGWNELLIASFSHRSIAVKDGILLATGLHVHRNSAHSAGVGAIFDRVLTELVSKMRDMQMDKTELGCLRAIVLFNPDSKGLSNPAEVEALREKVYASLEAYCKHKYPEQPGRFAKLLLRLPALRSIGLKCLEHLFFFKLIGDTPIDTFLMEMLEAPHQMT
The experiment in a line: RXRα ligand binding (Table 1). Particulars: RXR α. The source says:
(§1) Other assays described below, measure the ability of the compounds of the present invention to bind to, and/or activate various retinoid receptor subtypes. When in these assays a compound binds to a given receptor subtype and activates the transcription of a reporter gene through that subtype, then the compound is considered an agonist of that receptor subtype. […] In the below described assays the ability of the compounds to bind to RARα, RARβ, RARγ, RXRα, RXRβ and RXRγ receptors, and the ability or inability of the compounds to activate transcription of a reporter gene through these receptor subtypes can be tested. […] However, some of the compounds of the invention may behave as retinoid antagonists or partial antagonists and/or as inverse agonists. Because of the complex distribution of the different retinoid receptors in various organs of the mammalian body partial agonists and partial antagonists and compounds which have the characteristics of both may lend themselves to particularly useful therapeutic applications and may avoid serious side effects of conventional retinoid drugs.
(§2) A holoreceptor transactivation assay and a ligand binding assay which measure the antagonist/agonist like activity of the compounds of the invention, or their ability to bind to the several retinoid receptor subtypes, respectively, are described in published PCT Application No. WO WO93/11755 (particularly on pages 30-33 and 37-41) published on Jun. 24, 1993, the specification of which is also incorporated herein by reference. A detailed experimental procedure for holoreceptor transactivations has been described by Heyman et al. Cell 68, 397-406, (1992); Allegretto et al. J. Biol. Chem. 268, 26625-26633, and Mangelsdorf et al. The Retinoids: Biology, Chemistry and Medicine, pp 319-349, Raven Press Ltd., New York, which are expressly incorporated herein by reference. The results obtained in this assay are expressed in EC50 numbers, as they are also in the chimeric receptor transactivation assay. The results of ligand binding assay are expressed in Kd numbers. […]

The next test concerns the target T2, RARα (Homo sapiens, UniProt P10276).
T2 sequence (P10276 1-462): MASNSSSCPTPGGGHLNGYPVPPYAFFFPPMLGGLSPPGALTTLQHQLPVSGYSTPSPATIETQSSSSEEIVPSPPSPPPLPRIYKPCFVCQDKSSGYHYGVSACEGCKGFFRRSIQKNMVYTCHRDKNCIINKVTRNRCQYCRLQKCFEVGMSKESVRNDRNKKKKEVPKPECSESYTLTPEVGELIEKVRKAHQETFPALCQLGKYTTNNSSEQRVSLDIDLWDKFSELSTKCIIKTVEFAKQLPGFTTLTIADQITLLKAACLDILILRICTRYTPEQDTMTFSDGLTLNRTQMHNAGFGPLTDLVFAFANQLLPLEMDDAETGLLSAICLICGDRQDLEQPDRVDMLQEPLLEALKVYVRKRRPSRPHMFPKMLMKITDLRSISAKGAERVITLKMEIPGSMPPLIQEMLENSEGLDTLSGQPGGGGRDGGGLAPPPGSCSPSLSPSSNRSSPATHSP
Description: RARα ligand binding (Table 2). As to conditions: RAR α.
Description: as §1, §2

A further test has as its target T3, RXRβ (Mus musculus, UniProt P28704).
T3 construct: expressed in transfected cells
T3 sequence (P28704 1-520): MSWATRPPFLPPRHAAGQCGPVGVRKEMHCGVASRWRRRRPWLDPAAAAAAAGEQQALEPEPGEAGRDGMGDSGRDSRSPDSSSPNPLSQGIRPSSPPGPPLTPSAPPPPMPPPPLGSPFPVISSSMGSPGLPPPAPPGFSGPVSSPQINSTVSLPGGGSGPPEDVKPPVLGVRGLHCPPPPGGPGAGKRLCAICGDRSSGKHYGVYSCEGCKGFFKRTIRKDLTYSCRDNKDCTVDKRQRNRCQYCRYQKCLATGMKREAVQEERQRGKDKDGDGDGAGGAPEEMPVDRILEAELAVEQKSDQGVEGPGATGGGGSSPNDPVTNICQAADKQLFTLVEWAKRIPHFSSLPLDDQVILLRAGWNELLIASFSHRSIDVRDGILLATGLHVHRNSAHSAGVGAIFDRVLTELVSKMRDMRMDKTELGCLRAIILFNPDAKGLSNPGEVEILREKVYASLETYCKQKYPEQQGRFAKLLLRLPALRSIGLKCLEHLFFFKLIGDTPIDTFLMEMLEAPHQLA
Description: RXRβ receptor transactivation (Table 1). Format: cell-based. Particulars: RXR β; for Emax: read-out: % Eff.
Description: as §1
(§3) A holoreceptor transactivation assay and a ligand binding assay which measure the antagonist/agonist like activity of the compounds of the invention, or their ability to bind to the several retinoid receptor subtypes, respectively, are described in published PCT Application No. WO WO93/11755 (particularly on pages 30-33 and 37-41) published on Jun. 24, 1993, the specification of which is also incorporated herein by reference. A detailed experimental procedure for holoreceptor transactivations has been described by Heyman et al. Cell 68, 397-406, (1992); Allegretto et al. J. Biol. Chem. 268, 26625-26633, and Mangelsdorf et al. The Retinoids: Biology, Chemistry and Medicine, pp 319-349, Raven Press Ltd., New York, which are expressly incorporated herein by reference. The results obtained in this assay are expressed in EC50 numbers, as they are also in the chimeric receptor transactivation assay. The results of ligand binding assay are expressed in Kd numbers. (See Cheng et al. Biochemical Pharmacology Vol. 22 pp 3099-3108, expressly incorporated herein by reference.)

Test [2] has as its target T1, RXRα. Description: RXRα receptor transactivation (Table 1). Format: cell-based. Particulars: RXR α; for Emax: read-out: % Eff.
Description: as §1
The specification of U.S. Pat. No. 5,455,265 is hereby expressly incorporated by reference.
as §3

The target of test [3] is T4, RXRγ (Mus musculus, UniProt P28705).
T4 construct: expressed in transfected cells
T4 sequence (P28705 1-463): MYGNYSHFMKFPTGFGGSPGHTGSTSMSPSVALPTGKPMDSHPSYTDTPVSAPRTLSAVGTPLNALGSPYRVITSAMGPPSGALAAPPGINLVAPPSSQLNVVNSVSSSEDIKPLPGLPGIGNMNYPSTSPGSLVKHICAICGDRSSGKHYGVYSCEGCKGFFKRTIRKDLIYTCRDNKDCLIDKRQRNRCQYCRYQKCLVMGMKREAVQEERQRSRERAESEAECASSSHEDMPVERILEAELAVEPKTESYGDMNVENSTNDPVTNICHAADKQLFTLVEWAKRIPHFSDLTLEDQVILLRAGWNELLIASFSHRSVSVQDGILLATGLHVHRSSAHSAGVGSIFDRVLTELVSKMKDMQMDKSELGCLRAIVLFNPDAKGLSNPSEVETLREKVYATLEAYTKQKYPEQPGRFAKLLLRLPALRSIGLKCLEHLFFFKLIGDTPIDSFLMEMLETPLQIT
Description: RXRγ receptor transactivation (Table 1). It is filed as cell-based. Particulars: RXR γ; for Emax: read-out: % Eff.
Description: as §1, §3

The target of another test is T5, RARβ (Homo sapiens, UniProt P10826).
T5 sequence (P10826 1-448 isoform P10826-2): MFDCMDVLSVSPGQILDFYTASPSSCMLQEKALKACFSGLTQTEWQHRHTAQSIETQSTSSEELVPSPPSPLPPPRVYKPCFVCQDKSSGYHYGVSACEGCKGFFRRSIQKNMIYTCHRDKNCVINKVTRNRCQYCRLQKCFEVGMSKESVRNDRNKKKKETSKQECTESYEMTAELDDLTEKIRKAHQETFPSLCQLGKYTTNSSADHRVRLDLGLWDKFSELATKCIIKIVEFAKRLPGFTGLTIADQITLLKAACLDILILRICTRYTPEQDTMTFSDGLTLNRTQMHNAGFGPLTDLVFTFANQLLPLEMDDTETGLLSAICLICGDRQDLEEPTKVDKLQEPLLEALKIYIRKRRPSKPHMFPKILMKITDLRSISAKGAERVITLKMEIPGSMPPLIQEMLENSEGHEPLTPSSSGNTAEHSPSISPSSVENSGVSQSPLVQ
Description: RARβ ligand binding (Table 2). Particulars: RAR β.
Description: as §1, §2

The next test concerns the target T6, RARγ (Homo sapiens, UniProt P13631).
T6 sequence (P13631 1-454): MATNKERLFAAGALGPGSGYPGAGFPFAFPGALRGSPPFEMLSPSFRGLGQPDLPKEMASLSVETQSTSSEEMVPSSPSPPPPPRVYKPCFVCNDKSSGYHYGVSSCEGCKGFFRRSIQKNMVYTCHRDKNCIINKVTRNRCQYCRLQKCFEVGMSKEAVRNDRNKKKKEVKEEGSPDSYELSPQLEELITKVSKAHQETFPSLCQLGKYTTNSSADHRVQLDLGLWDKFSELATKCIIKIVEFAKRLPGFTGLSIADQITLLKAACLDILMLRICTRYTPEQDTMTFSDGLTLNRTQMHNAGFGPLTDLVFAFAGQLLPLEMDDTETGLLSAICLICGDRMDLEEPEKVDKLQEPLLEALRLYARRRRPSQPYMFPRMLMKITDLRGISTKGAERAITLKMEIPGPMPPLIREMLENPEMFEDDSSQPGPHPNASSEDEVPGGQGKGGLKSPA
The experiment in a line: RARγ ligand binding (Table 2). Particulars: RAR γ.
Description: as §1, §2

Test [4] deals with T4, RXRγ. The experiment in a line: RXRγ ligand binding (Table 1). Particulars: RXR γ.
Description: as §1, §2

As usually defined, the Kd is a measure of binding affinity in units of concentration. Higher therefore signals lower affinity. A word on the EC50: it is the concentration giving half of the maximal effect. Low readings indicate greater potency, high ones weaker potency. Turning to `CC(/C=C/[C@@H]1C[C@]1(C)c1ccc2c(c1)C(C)(C)CC(=O)N2C(C)C)=C\C(=O)O` [Compound 1, (6S,7S)-7-(4,4-Dimethyl-2-oxo-1-(2-propyl)-1,2,3,4-tetrahydroquinolin-6-yl)-6,7-methano-3-methyl-octa-2E,4E-dienoic acid], the equilibrium dissociation constant (Kd) on RXRα [1] was 1.4 nM; on RARα, over 10000 nM; on RARβ, over 10000 nM; at RARγ, over 10000 nM; at RXRγ [4], 3.1 nM. In addition, the concentration giving a half-maximal response (EC50) on RXRβ was determined as 0.627 nM; on RXRα [2], 0.077 nM; on RXRγ [3], 0.085 nM. Further, the Emax at RXRβ stood at 109%; at RXRα [2] it was 107%; at RXRγ [3] it was 115%.
Regarding `CC(/C=C/[C@@H]1C[C@]1(C)c1ccc2c(c1)C(C)(C)CCN2C(=O)OC(C)(C)C)=C\C(=O)O` [Compound 17], the Kd at RXRα [1] is 0.35 nM; at RARα, over 30000 nM; at RARβ, 10000 nM; on RARγ, 12000 nM; at RXRγ [4], 4.1 nM. Besides, the figures for the EC50 at RXRβ, on RXRα [2] and on RXRγ [3] were 0.42 nM, 0.15 nM and 0.31 nM, respectively. Also, the figures for the Emax at RXRβ, on RXRα [2] and at RXRγ [3] were 115%, 110% and 101%, respectively.
In the case of `CC(/C=C/[C@@H]1C[C@]1(C)c1ccc2c(c1)C(C)(C)CC(=S)N2C(C)C)=C\C(=O)O` [Compound 2, (6S,7S)-7-(4,4-Dimethyl-1-(2-propyl)-2-thioxo-1,2,3,4-tetrahydroquinolin-6-yl)-6,7-methano-3-methyl-octa-2E,4E-dienoic acid], the Kd on RXRα [1] worked out at 0.97 nM; on RARα, 27000 nM; at RARβ, 31000 nM; on RARγ, 25000 nM; at RXRγ [4], 10.5 nM. Also, the EC50 at RXRβ was determined as 0.376 nM; on RXRα [2] it was 0.064 nM; at RXRγ [3], 0.059 nM. The results for the Emax at RXRβ, on RXRα [2] and at RXRγ [3] were 144%, 160% and 137%, respectively.
